Tests used:
[1] = biological target: human FLAP (Homo sapiens (Human), UniProt P20292); test: FLAP binding assay (HTRF format); conditions: human FLAP wild type, HTRF format; average of two plates, duplicates
Method in brief: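 Samples were run in duplicate on each of two plates and the plate results averaged. Read-out is the HTRF signal ratio.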

[2] = test system: leukotriene pathway in human whole blood (LTB4 levels); test: Human whole blood assay (A23187-stimulated LTB4); assay type: cell-based; conditions: Homo sapiens, human whole blood diluted 1:1 in RPMI, A23187-stimulated LTB4; read-out: LTB4 IC50 1:1
Method in brief: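 Blood (heparin) diluted 1:1 RPMI; compound pre-incubation 15 min, 37° Celsius; A23187 7 μg/mL, 30 min, 37° Celsius; plasma LTB4 by commercial kit. IC50 via 4-parameter equation.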

Sequence of human FLAP (P20292 whole entry): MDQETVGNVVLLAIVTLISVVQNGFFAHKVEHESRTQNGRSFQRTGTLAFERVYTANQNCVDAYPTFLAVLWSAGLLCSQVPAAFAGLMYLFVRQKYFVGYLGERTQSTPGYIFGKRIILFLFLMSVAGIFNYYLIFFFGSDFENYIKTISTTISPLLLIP

Compound	Ki [1]	IC50 [2]
Nc1cnc(-c2ccc(-c3ccccc3NS(=O)(=O)C(F)(F)F)cc2F)cn1 [Example 41, [4′-(5-Aminopyrazin-2-yl)-3′-fluorobiphenyl-2-yl]-1,1,1-trifluoromethanesulfonamide]	14 nM	2690 nM
CN(C)S(=O)(=O)c1ccccc1-c1ccc(-c2cnc(N)cn2)c(F)c1 [Example 42, 4′-(5-Aminopyrazin-2-yl)-3′-fluoro-N,N-dimethylbiphenyl-2-sulfonamide]	11 nM	149 nM
Nc1cnc(-c2ccc(-c3ccccc3S(=O)(=O)N3CCCCC3)cc2F)cn1 [Example 43, 5-[3-Fluoro-2′-(piperidin-1-ylsulfonyl)biphenyl-4-yl]pyrazin-2-amine]	2 nM	111 nM
Nc1cnc(-c2ccc(-c3ccccc3S(=O)(=O)N3CCOCC3)cc2F)cn1 [Example 44, 5-[3-Fluoro-2′-(morpholin-4-ylsulfonyl)biphenyl-4-yl]pyrazin-2-amine]	7 nM	58 nM
Nc1cnc(-c2ccc(-c3ccccc3S(=O)(=O)N3CCS(=O)(=O)CC3)cc2F)cn1 [Example 45, 5-{2′-[(1,1-Dioxidothiomorpholin-4-yl)sulfonyl]-3-fluorobiphenyl-4-yl}pyrazin-2-amine]	3 nM	10 nM
Nc1cnc(-c2ccc(-c3ccccc3S(=O)(=O)N3CCNCC3)cc2F)cn1 [Example 46, 5-[3-Fluoro-2′-(piperazin-1-ylsulfonyl)biphenyl-4-yl]pyrazin-2-amine]	57 nM	194 nM
CCN(CC)S(=O)(=O)c1ccccc1-c1ccc(-c2cnc(N)cn2)c(F)c1 [Example 47, 4′-(5-Aminopyrazin-2-yl)-N,N-diethyl-3′-fluorobiphenyl-2-sulfonamide]	1 nM	17 nM
Nc1cnc(-c2ccc(-c3ccccc3S(=O)(=O)N3CCCC3)cc2F)cn1 [Example 48, 5-[3-Fluoro-2′-(pyrrolidin-1-ylsulfonyl)biphenyl-4-yl]pyrazin-2-amine]	11 nM	158 nM
Nc1cnc(-c2ccc(-c3ccccc3S(=O)(=O)N3CCC(F)(F)CC3)cc2F)cn1 [Example 49, 5-{2′-[(4,4-Difluoropiperidin-1-yl)sulfonyl]-3-fluorobiphenyl-4-yl}pyrazin-2-amine]	2 nM	21 nM
Nc1cnc(-c2ccc(-c3ccccc3S(=O)(=O)N3CCCC(F)(F)C3)cc2F)cn1 [Example 50, 5-{2′-[(3,3-Difluoropiperidin-1-yl)sulfonyl]-3-fluorobiphenyl-4-yl}pyrazin-2-amine]	1 nM	15 nM
Nc1cnc(-c2ccc(-c3ccccc3S(=O)(=O)N3CCC(F)(F)C3)cc2F)cn1 [Example 51, 5-{2′-[(3,3-Difluoropyrrolidin-1-yl)sulfonyl]-3-fluorobiphenyl-4-yl}pyrazin-2-amine]	4 nM	42 nM
Nc1cnc(-c2ccc(-c3ccccc3S(=O)(=O)N3CC(F)(F)C3)cc2F)cn1 [Example 52, 5-{2′-[(3,3-Difluoroazetidin-1-yl)sulfonyl]-3-fluorobiphenyl-4-yl}pyrazin-2-amine]	4 nM	155 nM
Nc1cnc(-c2ccc(-c3ccccc3S(=O)(=O)N3CCCCCC3)cc2F)cn1 [Example 53, 5-[2′-(Azepan-1-ylsulfonyl)-3-fluorobiphenyl-4-yl]pyrazin-2-amine]	3 nM	238 nM
CN1CCN(S(=O)(=O)c2ccccc2-c2ccc(-c3cnc(N)cn3)c(F)c2)CC1 [Example 54, 5-{3-Fluoro-2′-[(4-methylpiperazin-1-yl)sulfonyl]biphenyl-4-yl}pyrazin-2-amine]	20 nM	23 nM
Nc1cnc(-c2ccc(-c3ccccc3S(=O)(=O)N3CCC(O)(C(F)(F)F)CC3)cc2F)cn1 [Example 55, 1-{[4′-(5-Aminopyrazin-2-yl)-3′-fluorobiphenyl-2-yl]sulfonyl}-4-(trifluoromethyl)piperidin-4-ol]	1 nM	1230 nM
CS(=O)(=O)N1CCN(S(=O)(=O)c2ccccc2-c2ccc(-c3cnc(N)cn3)c(F)c2)CC1 [Example 56, 5-(3-Fluoro-2′-{[4-(methylsulfonyl)piperazin-1-yl]sulfonyl}biphenyl-4-yl)pyrazin-2-amine]	11 nM	3520 nM
CC(=O)N1CCN(S(=O)(=O)c2ccccc2-c2ccc(-c3cnc(N)cn3)c(F)c2)CC1 [Example 57, 5-{2′-[(4-Acetylpiperazin-1-yl)sulfonyl]-3-fluorobiphenyl-4-yl}pyrazin-2-amine]	15 nM	252 nM
Nc1cnc(-c2ccc(-c3ccccc3S(=O)(=O)N3CCN(C(=O)C4CC4)CC3)cc2F)cn1 [Example 58, 5-(2′-{[4-(Cyclopropylcarbonyl)piperazin-1-yl]sulfonyl}-3-fluorobiphenyl-4-yl)pyrazin-2-amine]	5 nM	991 nM

Compound	Ki [1]	IC50 [2]
Nc1cnc(-c2ccc(-c3ccccc3S(=O)(=O)N3CCN(CCO)CC3)cc2F)cn1 [Example 59, 2-(4-{[4′-(5-Aminopyrazin-2-yl)-3′-fluorobiphenyl-2-yl]sulfonyl}piperazin-1-yl)ethanol]	20 nM	1020 nM
Nc1cnc(-c2ccc(-c3ccccc3S(=O)(=O)N3CCN(C4CC4)CC3)cc2F)cn1 [Example 60, 5-{2′-[(4-Cyclopropylpiperazin-1-yl)sulfonyl]-3-fluorobiphenyl-4-yl}pyrazin-2-amine]	28 nM	464 nM
N#CC1CCN(S(=O)(=O)c2ccccc2-c2ccc(-c3cnc(N)cn3)c(F)c2)CC1 [Example 64, 1-{[4′-(5-Aminopyrazin-2-yl)-3′-fluorobiphenyl-2-yl]sulfonyl}piperidine-4-carbonitrile]	2 nM	6 nM
Nc1cnc(-c2ccc(-c3ccccc3S(=O)(=O)N3CCC(N)CC3)cc2F)cn1 [Example 65, 5-{2′-[(4-Aminopiperidin-1-yl)sulfonyl]-3-fluorobiphenyl-4-yl}pyrazin-2-amine]	49 nM	322 nM
Nc1cnc(-c2ccc(-c3ccccc3S(=O)(=O)N3CCNC(=O)C3)cc2F)cn1 [Example 66, 4-{[4′-(5-Aminopyrazin-2-yl)-3′-fluorobiphenyl-2-yl]sulfonyl}piperazin-2-one]	21 nM	69 nM
Nc1cnc(-c2ccc(-c3ccccc3S(=O)(=O)N3CCC(O)CC3)cc2F)cn1 [Example 67, 1-{[4′-(5-Aminopyrazin-2-yl)-3′-fluorobiphenyl-2-yl]sulfonyl}piperidin-4-ol]	3 nM	12 nM
Nc1cnc(-c2ccc(-c3ccccc3S(=O)(=O)N3CCC(CO)CC3)cc2F)cn1 [Example 68, (1-{[4′-(5-Aminopyrazin-2-yl)-3′-fluorobiphenyl-2-yl]sulfonyl}piperidin-4-yl)methanol]	1 nM	6 nM
Nc1cnc(-c2ccc(-c3ccccc3S(=O)(=O)N3CCC(CCO)CC3)cc2F)cn1 [Example 69, 2-(1-{[4′-(5-Aminopyrazin-2-yl)-3′-fluorobiphenyl-2-yl]sulfonyl}piperidin-4-yl)ethanol]	1 nM	8 nM
CNC1CCN(S(=O)(=O)c2ccccc2-c2ccc(-c3cnc(N)cn3)c(F)c2)CC1 [Example 72, 5-(3-Fluoro-2′-{[4-(methylamino)piperidin-1-yl]sulfonyl}biphenyl-4-yl)pyrazin-2-amine]	111 nM	168 nM
CN(C)C1CCN(S(=O)(=O)c2ccccc2-c2ccc(-c3cnc(N)cn3)c(F)c2)CC1 [Example 73, 5-(2′-{[4-(Dimethylamino)piperidin-1-yl]sulfonyl}-3-fluorobiphenyl-4-yl)pyrazin-2-amine]	62 nM	77 nM
CC(=O)NC1CCN(S(=O)(=O)c2ccccc2-c2ccc(-c3cnc(N)cn3)c(F)c2)CC1 [Example 75, N-(1-{[4′-(5-Aminopyrazin-2-yl)-3′-fluorobiphenyl-2-yl]sulfonyl}piperidin-4-yl)acetamide]	12 nM	185 nM
Nc1cnc(-c2ccc(-c3ccccc3S(=O)(=O)N[C@@H](CO)[C@@H](O)c3ccccc3)cc2F)cn1 [Example 78, 4′-(5-Aminopyrazin-2-yl)-3′-fluoro-N-[(1S,2S)-2-hydroxy-1-(hydroxymethyl)-2-phenylethyl]biphenyl-2-sulfonamide]	1 nM	166 nM
CC(C)C[C@@H](CO)NS(=O)(=O)c1ccccc1-c1ccc(-c2cnc(N)cn2)c(F)c1 [Example 79, 4′-(5-Aminopyrazin-2-yl)-3′-fluoro-N-[(1S)-1-(hydroxymethyl)-3-methylbutyl]biphenyl-2-sulfonamide]	5 nM	150 nM
Nc1cnc(-c2ccc(-c3ccccc3S(=O)(=O)N[C@H](CO)c3ccccc3)cc2F)cn1 [Example 81, 4′-(5-Aminopyrazin-2-yl)-3′-fluoro-N-[(1S)-2-hydroxy-1-phenylethyl]biphenyl-2-sulfonamide]	6 nM	152 nM
Nc1cnc(-c2ccc(-c3ccccc3S(=O)(=O)N[C@@H](CO)c3ccccc3)cc2F)cn1 [Example 82, 4′-(5-Aminopyrazin-2-yl)-3′-fluoro-N-[(1R)-2-hydroxy-1-phenylethyl]biphenyl-2-sulfonamide]	1 nM	18 nM
CC[C@H](C)[C@@H](CO)NS(=O)(=O)c1ccccc1-c1ccc(-c2cnc(N)cn2)c(F)c1 [Example 84, 4′-(5-Aminopyrazin-2-yl)-3′-fluoro-N-[(1S,2S)-1-(hydroxymethyl)-2-methylbutyl]biphenyl-2-sulfonamide]	3 nM	97 nM
Nc1cnc(-c2ccc(-c3ccccc3S(=O)(=O)N[C@@H]3CCCC[C@H]3O)cc2F)cn1 [Example 85, 4′-(5-Aminopyrazin-2-yl)-3′-fluoro-N-[(1R,2R)-2-hydroxycyclohexyl]biphenyl-2-sulfonamide]	2 nM	20 nM

Source: patent US9079866B2, “Flap modulators” (JANSSEN PHARMACEUTICA NV, priority 2013, dated 2015)
